Results on 39 compounds are retold here after ChEMBL document CHEMBL1201862, “PubChem BioAssay data set” (2004).

SMILES strings stand for the structures. Calls of active or inactive are those of the source. A value given as a limit tells only on which side of the number the result lay.

One assay has as its system P388/ADR. The assay can be described thus: cells. As to conditions: Mus musculus. Format: functional.
In another assay the test system is SN12K1. The experiment in a line: cells. Format: functional. As to conditions: Homo sapiens.
The next assay deals with P388. The assay can be described thus: cells. As to conditions: Mus musculus. It is filed as functional.
Assay [1] addresses Glyceraldehyde-3-phosphate dehydrogenase (Homo sapiens, UniProt P04406).
The nature of the next assay: cells. It is filed as functional.
Assay [2] has as its target T1, Carboxy-terminal domain RNA polymerase II polypeptide A small phosphatase 1 (Homo sapiens, UniProt Q9GZU7).
T1 sequence (Q9GZU7 whole entry): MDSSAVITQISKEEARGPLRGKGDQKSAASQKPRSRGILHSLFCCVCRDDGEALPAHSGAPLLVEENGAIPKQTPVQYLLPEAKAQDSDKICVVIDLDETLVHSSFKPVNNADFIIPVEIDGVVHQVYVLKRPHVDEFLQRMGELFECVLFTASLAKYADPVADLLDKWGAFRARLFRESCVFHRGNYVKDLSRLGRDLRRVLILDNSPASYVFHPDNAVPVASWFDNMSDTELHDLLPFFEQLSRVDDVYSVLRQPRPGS
The experiment in a line: CTDSP1 inhibitors, concentration-response, biochemical, absorbance readout, ultra-high-throughput screen actives (AID 540297). Format: functional.

Assay [3] deals with T2, Replicative DNA helicase DnaB (Mycobacterium tuberculosis, UniProt P9WMR3).
T2 sequence (P9WMR3 whole entry): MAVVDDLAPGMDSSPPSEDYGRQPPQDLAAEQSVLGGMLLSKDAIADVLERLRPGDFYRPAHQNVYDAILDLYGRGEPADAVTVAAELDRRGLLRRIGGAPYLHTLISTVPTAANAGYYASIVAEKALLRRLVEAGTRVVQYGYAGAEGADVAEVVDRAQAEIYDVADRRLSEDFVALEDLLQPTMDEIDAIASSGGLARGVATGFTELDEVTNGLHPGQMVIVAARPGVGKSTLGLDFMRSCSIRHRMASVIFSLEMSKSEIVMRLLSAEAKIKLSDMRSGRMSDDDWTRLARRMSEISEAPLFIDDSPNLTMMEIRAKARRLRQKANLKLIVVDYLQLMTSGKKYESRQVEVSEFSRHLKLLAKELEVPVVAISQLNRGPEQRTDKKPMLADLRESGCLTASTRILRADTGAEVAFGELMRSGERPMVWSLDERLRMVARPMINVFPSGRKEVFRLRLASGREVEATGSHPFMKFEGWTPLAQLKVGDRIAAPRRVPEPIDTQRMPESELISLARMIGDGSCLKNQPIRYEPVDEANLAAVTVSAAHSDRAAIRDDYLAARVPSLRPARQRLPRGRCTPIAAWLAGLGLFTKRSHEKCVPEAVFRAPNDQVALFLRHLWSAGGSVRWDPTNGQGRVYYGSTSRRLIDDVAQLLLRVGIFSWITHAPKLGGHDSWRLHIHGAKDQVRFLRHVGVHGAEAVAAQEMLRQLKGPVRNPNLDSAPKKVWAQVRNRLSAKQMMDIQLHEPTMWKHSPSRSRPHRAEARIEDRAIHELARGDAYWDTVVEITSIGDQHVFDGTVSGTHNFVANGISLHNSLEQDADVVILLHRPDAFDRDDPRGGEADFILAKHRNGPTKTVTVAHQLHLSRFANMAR
The assay can be described thus: DnaB intein splicing inhibitors, dose response, biochemical, cell-free fluorescence (AID 449749). Format: functional.

The next assay concerns the target T3, Protein RecA (Mycobacterium tuberculosis, UniProt P9WHJ3).
T3 sequence (P9WHJ3 whole entry): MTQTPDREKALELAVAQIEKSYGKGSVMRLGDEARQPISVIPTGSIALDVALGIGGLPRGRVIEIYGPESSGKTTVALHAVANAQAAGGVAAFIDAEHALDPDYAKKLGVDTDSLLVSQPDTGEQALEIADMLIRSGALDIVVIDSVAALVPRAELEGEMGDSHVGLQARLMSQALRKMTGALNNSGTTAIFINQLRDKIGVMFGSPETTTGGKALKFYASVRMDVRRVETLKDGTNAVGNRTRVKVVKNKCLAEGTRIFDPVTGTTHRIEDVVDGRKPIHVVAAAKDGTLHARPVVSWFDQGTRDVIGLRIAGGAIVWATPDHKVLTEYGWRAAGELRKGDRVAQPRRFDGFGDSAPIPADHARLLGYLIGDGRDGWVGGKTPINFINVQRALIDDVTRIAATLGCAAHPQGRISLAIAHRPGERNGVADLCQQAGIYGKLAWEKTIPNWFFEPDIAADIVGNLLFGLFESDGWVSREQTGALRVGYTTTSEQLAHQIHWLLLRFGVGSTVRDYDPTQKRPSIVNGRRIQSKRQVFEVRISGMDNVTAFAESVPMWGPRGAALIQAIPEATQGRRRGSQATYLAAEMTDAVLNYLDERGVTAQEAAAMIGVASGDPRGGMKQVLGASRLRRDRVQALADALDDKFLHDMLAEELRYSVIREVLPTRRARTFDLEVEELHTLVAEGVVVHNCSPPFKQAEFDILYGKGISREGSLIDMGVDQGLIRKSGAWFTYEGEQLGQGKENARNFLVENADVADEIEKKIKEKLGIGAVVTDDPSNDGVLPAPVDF
The assay can be described thus: Fluorescence Cell-Free Homogeneous Dose Retest to Identify Inhibitors of RecA-Intein Splicing Activity. [Related pubchem assays (depositor defined):AID2097, AID2223, AID489010, AID492950]. It is filed as functional.

Assay [4] can be described thus: viability of PTEN-deleted HCT116 cells – cell-based, HCT116 PTEN knockout, dose response (AID 1047).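 Also: HCT116 colon tumor cells with PTEN knocked out; cells exposed to compound for 60 hours before readout; potency for loss of cell viability measured by luminescence.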 It is filed as functional.
Assay [5] in a line: viability of HCT116 lacking mutant beta-catenin – cell-based, human colon tumor, dose response (AID 1045).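 Also: HCT116 colon tumor cells with beta catenin knocked out; cells exposed to compound for 60 hours.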 Format: functional.
The target of assay [6] is FAD-linked sulfhydryl oxidase ALR (Homo sapiens, UniProt P55789). The assay can be described thus: ALR-catalysed DTT oxidation blockers – biochemical, H2O2 detection, luminescence, cherry-pick, dose response (AID 493248).
Chain of FAD-linked sulfhydryl oxidase ALR (P55789 whole entry): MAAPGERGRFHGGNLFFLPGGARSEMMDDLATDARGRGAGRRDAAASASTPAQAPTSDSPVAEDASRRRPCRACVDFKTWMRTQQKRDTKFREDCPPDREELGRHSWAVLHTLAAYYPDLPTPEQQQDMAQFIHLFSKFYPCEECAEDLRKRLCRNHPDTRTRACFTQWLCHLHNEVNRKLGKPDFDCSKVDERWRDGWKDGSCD

Chain of Glyceraldehyde-3-phosphate dehydrogenase (P04406 whole entry): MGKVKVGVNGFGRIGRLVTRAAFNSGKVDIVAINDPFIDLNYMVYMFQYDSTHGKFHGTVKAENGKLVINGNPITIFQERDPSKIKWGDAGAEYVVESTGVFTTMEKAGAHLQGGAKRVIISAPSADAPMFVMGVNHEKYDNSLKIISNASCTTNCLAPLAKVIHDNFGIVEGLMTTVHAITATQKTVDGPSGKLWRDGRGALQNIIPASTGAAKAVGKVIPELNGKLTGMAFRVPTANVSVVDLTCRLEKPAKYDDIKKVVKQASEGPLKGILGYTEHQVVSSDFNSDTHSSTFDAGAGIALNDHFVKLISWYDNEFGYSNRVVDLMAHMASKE

Broadly, the GI50 is the concentration at which growth is held to half of that of the control. Regarding `COc1cccc2c1C(=O)c1c(O)c3c(c(O)c1C2=O)C[C@@](O)(C(=O)CN1CCOCC1)C[C@@H]3OC1CC(N)C(O)C(C)O1` (stereo not given in full), the GI50 in the assay with P388/ADR is 14.7 µM (inactive); with SN12K1 it was 0.649 µM (active); in the assay on P388, 0.361 µM (active).
In general, IC50 refers to the concentration at which inhibition is half-maximal. Regarding `CN1CCN(C2=C(Cl)C(=O)N(c3ccc(C(F)(F)F)cc3)C2=O)CC1`, the IC50 in assay [1] was > 50 µM (inconclusive).
As for `C=C1C(=O)[C@@]23CC[C@H]4[C@@](C)(CCC[C@@]4(C)C(=O)OC)[C@@H]2CC[C@]1(O)C3`, the values for the GI50 in the assay with P388/ADR, in the assay on SN12K1 and with P388 were 0.0483 µM (active), 1.45 µM (inactive) and 0.153 µM (active), respectively.
Taken in the same sequence, the figures for `COc1ccc(C2COc3cc(OC(C)=O)c(OC(C)=O)cc3C2)cc1` (stereo not given) were 2.87 µM (inactive), 13.9 µM (inactive) and 3.08 µM (inactive).
As for `CCOC(=O)c1cc(-c2c(Cl)cccc2Cl)no1`, the IC50 in “cells” is 23 µM (active).
On to `O=C(NNC(=O)c1ccc(-c2ccccc2)cc1)c1ccccc1`, for which the IC50 in assay [2] was 11.2 µM (active).
With `O=C1C(Cl)=C(N2CCN(CCOCCO)CC2)C(=O)N1c1ccc(C(F)(F)F)cc1`, the IC50 in assay [1] is > 50 µM (inconclusive).
Take `O=C1Nc2ccc(S(=O)(=O)NCc3ccco3)c3cccc1c23`: the IC50 in [2] is 10.8 µM (active).
As a reminder, the AC50 is the concentration at which the activity in the assay is half-maximal. Usually EC50 stands for the concentration needed to bring the measured effect to its halfway point. For the compound `Nc1ccc2[nH]ncc2c1`, the AC50 in assay [3] is 324 µM (active). Besides, the EC50 on Protein RecA was 36.1 µM (active).
As to `COc1cc([C@@H]2c3cc4c(c(O)c3C[C@H]3COC(=O)[C@@H]32)OCO4)cc(OC)c1O`, the GI50 is 0.02 µM (active) with P388/ADR, 0.0208 µM (active) in the assay on SN12K1 and 0.0261 µM (active) with P388.
As for `O=C1/C(=C/c2c[nH]c3ccccc23)CCC/C1=C\c1c[nH]c2ccccc12`, the EC50 was 14.4 µM (active) in [4] and 16.8 µM (active) in [5].
Turning to `CCOC(=O)N1CCC2(CC1)C(C#N)=C(N)Oc1[nH]nc(C)c12`, the AC50 in assay [3] was 8.2 µM (active). For the same compound, on Protein RecA, the EC50 is 1.43 µM (active).
Consider `O=C(NNCc1ccc(O)cc1)c1ccccc1Cl`, for which the AC50 in assay [6] was 0.695 µM (active).
For `O=c1ccn([C@@H]2C=C(CO)[C@@H](O)[C@H]2O)c(=O)[nH]1`, the GI50 in the assay on SN12K1 and in the assay with P388 was > 625 µM (inactive) in each case.
In the case of `CCCCN(C)/N=N/c1[nH]cnc1C(N)=O`, the figures for the GI50 in the assay with P388/ADR, in the assay on SN12K1 and with P388 were > 100 µM (inactive), 81.7 µM (inactive) and 63.8 µM (inactive), respectively.
Taken in the same sequence, the figures for `C/C=C1\C[C@@H]2C(OC)Nc3cc(O)c(OC)cc3C(=O)N2C1` (stereo not given in full) were 0.01 µM (active), 0.01 µM (active) and 0.01 µM (active).
On to `CCOc1ccc(C(CC(=O)O)CC(=O)O)cc1`, for which the IC50 in [1] is given as > 100 µM (not active).
With `CC(OC(=O)c1ccc2c(=O)n3c(nc2c1)CCCCC3)C(=O)Nc1ccc(Cl)cn1` (stereo not given), the IC50 in the assay “cells” was 20.3 µM (active).
As to `O=[N+]([O-])c1c(O)oc2ccccc2/c1=N\c1ccccc1O`, the 50% inhibitory concentration (IC50) in “cells” is 7.4 µM (active).
For the compound `Nc1nccc2c1ncn2C1C=C(CO)C(O)C1O` (stereo not given), the GI50 is 0.051 µM (active) in the assay with P388/ADR, 0.811 µM (active) in the assay with SN12K1 and 0.0982 µM (active) in the assay on P388.
Taken in the same sequence, the figures for `CCCCCC/C=C1\CCC(CN(C)C)C1=O` (stereo not given) were 0.673 µM (active), 2.17 µM (inactive) and 1.08 µM (active).
In the case of `CCOC(=O)C1CCCc2c1[nH]c1c(C(N)=O)cccc21` (stereo not given), the IC50 in “cells” is 5.22 µM (active).
For `CCOc1ccc(CCNc2ccc3nnc(-c4ccccc4)n3n2)cc1OCC`, the results for the concentration for a half-maximal effect (EC50) in assay [4] and in assay [5] were 12.7 µM (active) and 26.3 µM (active), respectively.
On to `O=C1C2=C(C3=NCCc4c[nH]c1c43)c1c(cc(Br)c(O)c1Br)CCN2`, for which the GI50 in the assay on P388/ADR was 10.2 µM (inactive); with SN12K1 it was 6.97 µM (inactive); in the assay on P388 it was 3.37 µM (inactive).
`Cc1cc(O)n2cc(-c3ccccc3)nc2n1`: in assay [6], the AC50 was 13.9 µM (active).
In the case of `O=S1(=O)N=C(N/N=C/C=C/c2ccccc2)c2ccccc21`, in “cells”, the IC50 is 30.6 µM (active).
On to `COc1ccc(N2C(=O)C(F)(F)C2c2cccc(F)c2)cc1` (stereo not given), for which the IC50 in the assay “cells” is 5.74 µM (active).
For the compound `Nc1ccc2cn[nH]c2c1`, in assay [3], the AC50 is 4.45 µM (active). Also, the EC50 on Protein RecA is 9.02 µM (active).
`CCOC(=O)CN(CC)C(=O)NC12CC3CC(CC(C3)C1)C2`: the GI50 was 120 µM (inactive) in the assay on P388/ADR, 188 µM (inactive) in the assay on SN12K1 and 175 µM (inactive) with P388.
For `CCN(CC)CCCC(C)Nc1c2ccc(Cl)cc2nc2cc(Cl)ccc12` (stereo not given) the same measures were 1.71 µM (inactive), 2.81 µM (inactive) and 1.87 µM (inactive).
Take `CCCc1cc(C(=O)N2CCCC(Nc3ccc(C)c(C)c3)C2)n(C)n1` (stereo not given): in assay [6], the AC50 is 3.84 µM (active).
Same read-out and setting: next, `CC1CCCC(C)N1c1nnc(N)s1` (stereo not given): 2.31 µM (active).
As for `CC(=O)Nc1cccc(OC(=O)COc2ccc(Br)cc2)c1`, the AC50 in [3] was 11 µM (active). Besides, the EC50 on Protein RecA was 20.6 µM (active).
As to `CCCN1C(=O)/C(=C(/O)C(=O)OCC)C(c2ccc(OC)c(OC)c2)C1=O` (stereo not given), the GI50 in the assay with P388/ADR, in the assay on SN12K1 and in the assay with P388 was > 100 µM (inactive) each time.
Turning to `O=C1C(Cl)=C(N2CCOCC2)C(=O)N1c1cccc(C(F)(F)F)c1`, the concentration for half-maximal inhibition (IC50) in [1] was > 50 µM (inconclusive). Also, in assay [3], the AC50 was 1.16 µM (inconclusive). Further, the EC50 at Protein RecA is 1.64 µM (active).
Consider `CC1=NCCc2cc3[nH]c4ccccc4c3cc21`, for which the results for the GI50 in the assay on P388/ADR, with SN12K1 and with P388 were 9.04 µM (inactive), 14.6 µM (inactive) and 6.73 µM (inactive), respectively.
For the compound `COc1ccc(CCNC(=O)c2cc(-c3cc(C)ccc3O)n[nH]2)cc1OC`, the concentration at half-maximal activity (AC50) in assay [6] was 85.6 µM (active).
With `N#Cc1ccc(-c2ccc(F)cc2)nc1Oc1ccc(Cl)c(Cl)c1`, the EC50 in assay [4] was 7.18 µM (active); in assay [5] it was 3.8 µM (active).
For `O=S(=O)(Nc1ccc2c(c1)OCO2)c1ccc(F)c(F)c1`, the AC50 in assay [6] was 5.12 µM (active).
